# Where two headings read alike, the source gives them in different places.
# Columns and labels:
# [1] = tested on: pAKT in BT474 cells; assay: Cell-based pAKT HTRF assay in BT474 cells; settings: BT474 cells, 4 hr incubation, read-out: pAKT inhibition IC50 in BT474 cells
# Description: On Day 1, cells were seeded into 96-well plates at 2.5×10^4 cells/well in complete growth media (DMEM, 10% FBS). On Day 2, cells were treated with compounds at 0.25% DMSO. The source plate was created with compounds diluted in media at 5-fold the final assay concentration. The compounds are run in a 9-point concentration curve starting at 3 μM, with a 3-fold dilution between concentrations. 20 μL was transferred onto the cell plates (final volume in wells was 100 μL). Plates were harvested after 4 hr incubation by aspirating media and adding kit-supplied 1× supplemented lysis buffer to all wells (75 μL per well). Plates were then placed on a plate shaker and incubated at 850 rpm for an additional 30 min. The antibody mixture solution was prepared by diluting aliquoted d2 and Eu Cryptate antibodies 1:20 in kit supplied detection buffer, then mixed the diluted antibodies solutions (1:1 v:v). 4 μL of this solution was then added to a 384-well detection plate (Perkin Elmer; 6008230). Samples were homogenized by pipetting up and down and then transferred (16 μL of cell lysates) from the 96-well cell culture plate to two wells of the HTRF 384-well detection plate containing the antibody solution. Plates were centrifuged (524 g for 1 min) and allowed to incubate between 4 and 24 h at room temperature. The maximum signal is reached after 4 h incubation time and remains stable over a period of 24 hours. Therefore, readings can be made between 4 and 24 h of incubation. Plates were centrifuged again (524 g for 1 m), and analyzed on the EnVision plate reader using the following settings: Excitation 320 nm, Bandwidth […]; Emission 615 nm, Bandwidth […], Gain 10000, Flashes 100, Lag 60 μs.
# [2] = target: Cys242 in human PIK3CA (157-299) (Homo sapiens (Human), UniProt P42336); assay: Covalent modification assay using MALDI-TOF MS; type: biochemical; settings: 4 h reaction time point
# Cys242 in human PIK3CA (157-299), sequence (P42336 157-299): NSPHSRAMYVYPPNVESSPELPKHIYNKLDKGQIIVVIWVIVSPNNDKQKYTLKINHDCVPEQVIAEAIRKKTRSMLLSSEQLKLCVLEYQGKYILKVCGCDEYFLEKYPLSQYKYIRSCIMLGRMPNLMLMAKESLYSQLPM
# Description: Matrix-Assisted Laser Desorption Ionization-Time of Flight Mass Spectrometry (MALDI-TOF MS) analysis of covalent modification of Cys242 in human PIK3CA (157-299) was performed.
# Reaction: 3.33 μM or 1 μM of PIK3CA (157-299) protein (produced in-house by Protein Expression Laboratory, FNLCR/Leidos Biomed) in 20 mM HEPES buffer containing 150 mM NaCl, 2 mM MgCl2, pH 7.3 was prepared freshly before assay. Twelve-μL aliquots of protein were dispensed onto low volume 384-well plate, then 470 nL DMSO and 30 nL of tested compounds from 10 mM DMSO stocks were added to appropriate wells using ECHO 555 acoustic liquid handler (Labcyte Inc.). For each reaction/assay, three blanks were prepared by mixing 12 μL of protein solution with 500 nL DMSO. The wells content was carefully mixed by aspiration, and then the plate was sealed by an adhesive cover, centrifuged at 931 g for 1 minute, and kept in the dark at room temperature until 15 min, 30 min, 2 h, or 4 h collections.
# Targetpretreatment: Before each assay MALDI target (Bruker MPT 384 ground steel BC) was pre-treated by pipetting on each spot 0.75 μL of saturated sinapinic acid in acetonitrile (ACN).
# Sample preparation: At collection time point, 2 μL of reaction mixtures were pipetted out into […] MALDI matrix solution (saturated solution of sinapinic acid in 1:1 ACN:water solution containing 0.15% trifluoroacetic acid (TFA)) deposited on 384 well polypropylene plate. The resulting solution was mixed by aspiration, centrifuged at 931 g for 1 minute, then 1.5 μL aliquots were dispensed on pre-treated MALDI target using Beckman Coulter Biomek FX^P 96/384-Span-8 Laboratory Automation Workstation. Finally, the MALDI target was dried under a mild vacuum to produce spots with a fine crystalline structure.
# Measurements: MALDI-TOF measurements were performed on Bruker Daltonics rapifleX Tissuetyper TOF-TOF mass spectrometer using linear mode and mass ranging from 16.0 to 19.6 kDa. Detector gain was set to 0.64×(459 V), sample rate to 5 GS/s, real-time smoothing to medium (175 MHz), laser smart beam pattern was set to “Custom” single smartbeam beam scan with a scan range of 40 μm on both X and Y axis, and the laser frequency was 10000 Hz. Spectra were automatically collected using the custom AutoXecute method. Laser power was auto adjusted using fuzzy control. The peak selection range was set to be between 16.0 and 18.5 kDa. Peak evaluation uses a half-width parameter set to be smaller than 40 Da for processed spectrograms (centroid peak detection; smoothed by SavitzkyGolay algorithm using 7 m/z width and 2 cycles; baseline was subtracted using a median algorithm with flatness 1 and median level 0). Fuzzy control used Proteins/Oligonucleotides protocol with minimum half-width 1/10 times above threshold. Up to 40000 satisfactory shots were collected in 10000 short steps. Dynamic termination was implemented to finish data collection when the peak signal/noise ratio was reaching a value of 1000.
# Spectra processing: Spectra were smoothed by SavitzkyGolay algorithm using 7 m/z width and three cycles. Centroid peak detection algorithm was used with signal to noise threshold set to 6, relative intensity threshold 3%, peak width 10 m/z, and median baseline subtraction using flatness of 1 and the median level of 0.1. Peak intensity and area under the peak were evaluated and recorded for all peaks between 16.0 and 19.5 kDa.
# Calculation of percent modification: Percent modification was calculated as a ratio of peak height for protein modified by compound to the sum of the peak height of remaining protein plus peak height for protein modified by a compound. If multiple modifications were observed each was calculated as a ratio of peak height for given modification versus the sum of peak heights for all observed protein species.
# [3] = 3.33 μM protein target, 1:7.5 protein to compound ratio (compounds 1-852)
# [4] = 1 μM protein target, 1:5 protein to compound ratio (compounds 853-1279)
compound,measurement,setting,value
C=CC(=O)N1CCc2nc(-c3nc(-c4cnn(CC(C)(C)N)c4)c4ccsc4c3-c3c(F)cc(F)cc3OC(C)C)sc2C1 [Compound 401],IC50,[1]; Compounds 10-999,100 to 1000 nM
same,% of modification,[2]; [3],A (percent of modification of PIK3CA protein ≥75%)
CCC(=O)N1CCn2nc(-c3nc(-c4ccc5c(cnn5C)c4)c4ccsc4c3-c3c(F)cc(F)cc3OCCOC)cc2C1C (centres unmarked) [Compound 1204],IC50,[1]; Compounds 1000-1279,> 1000 nM
C=CC(=O)N1Cc2cc(-c3nc(-c4ccc5c(c4)CCS5(=O)=O)c4ccsc4c3-c3c(F)cc(F)cc3OCCOC)nn2C[C@H]1C [Compound 794],IC50,[1]; Compounds 10-999,> 3000 nM
same,% of modification,[2]; [3],A (percent of modification of PIK3CA protein ≥75%)
C=CC(=O)N1CCc2nc(-c3nc(-c4ccc5c(c4)CCNC5)c4ccsc4c3-c3c(F)cc(F)cc3OC(C)C)sc2C1 [Compound 367],IC50,[1]; Compounds 10-999,100 to 1000 nM
same,% of modification,[2]; [3],A (percent of modification of PIK3CA protein ≥75%)
C=CC(=O)N1CCc2ncc(-c3nc(-c4ccc5c(c4)C(O)CC5)c4ccsc4c3-c3c(F)cc(F)cc3OCCOC)cc2C1 (centres unmarked) [Compound 397],IC50,[1]; Compounds 10-999,< 100 nM
same,% of modification,[2]; [3],A (percent of modification of PIK3CA protein ≥75%)
C=C(F)C(=O)N1Cc2cc(-c3nc(-c4ccc5c(cnn5C)c4)c4ccsc4c3-c3c(F)cc(F)cc3OCCOC)nn2CC1C (centres unmarked) [Compound 873],IC50,[1]; Compounds 10-999,100 to 1000 nM
same,% of modification,[2]; [4],D (percent of modification <25%)
C=CC(=O)N1CCn2nc(-c3nc(-c4ccc(OCC5CN(C)C5)cc4)c4ccsc4c3-c3c(F)cc(F)cc3OCCOC)cc2C1C (centres unmarked) [Compound 1078],IC50,[1]; Compounds 1000-1279,< 100 nM
same,% of modification,[2]; [4],A (percent of modification of PIK3CA protein ≥75%)
"C=CC(=O)N1CC(n2cc(-c3nc(-c4ccc5c(c4)CCNC5)c4c(c3-c3ccc(F)cc3OC)CCC4)cn2)C1 [Compound 97, 1-[3-[4-[4-(4-fluoro-2-methoxy-phenyl)-1-(1,2,3,4-tetrahydroisoquinolin-6-yl)-6,7-dihydro-5H-cyclopenta[c]pyridin-3-yl]pyrazol-1-yl]azetidin-1-yl]prop-2-en-1-one]",IC50,"[1]; Homo sapiens, BT-474, Compounds 10-999",100 to 1000 nM
same,% of modification,[2]; [3],A (percent of modification of PIK3CA protein ≥75%)
C=CC(=O)N1CCc2ccc(-c3nc(-c4ccc5c(c4)CN(CCO)CC5(F)F)c4ccsc4c3-c3c(F)cc(F)cc3OCCOC)cc2C1 [Compound 1273],IC50,[1]; Compounds 1000-1279,> 1000 nM
same,% of modification,[2]; [4],D (percent of modification <25%)
C=CC(=O)N1Cc2cc(-c3nc(-c4ccc5c(c4)CCN(C)C5)c4ccsc4c3-c3c(F)cc(F)cc3OCCO)nn2[C@@H](C)C1 [Compound 565],IC50,[1]; Compounds 10-999,< 100 nM
same,% of modification,[2]; [3],A (percent of modification of PIK3CA protein ≥75%)
C=CC(=O)N1CCc2nc(-c3nc(-c4ccc5c(c4)CNCCC5)c4ccsc4c3-c3ccc(F)cc3OCCOC)sc2C1 [Compound 168],IC50,[1]; Compounds 10-999,< 100 nM
same,% of modification,[2]; [3],A (percent of modification of PIK3CA protein ≥75%)
C=CC(=O)N1CCn2nc(-c3nc(-c4ccc5ncn(C)c(=O)c5c4)c4ccsc4c3-c3c(F)cc(F)cc3OCCOC)cc2C1C (centres unmarked) [Compound 915],IC50,[1]; Compounds 10-999,< 100 nM
same,% of modification,[2]; [4],A (percent of modification of PIK3CA protein ≥75%)
C=CC(=O)N1CCn2nc(-c3nc(-c4ccc5c(c4)CCN(C)C5)c4ccsc4c3-c3c(F)cc(F)cc3OC(C)C)cc2[C@H]1C [Compound 542],IC50,[1]; Compounds 10-999,100 to 1000 nM
C=CC(=O)N1CCc2ccc(-c3nc(-c4ccc5c(c4)CCNC5)c4ccsc4c3-c3ccc(F)cc3OCCOC)cc21 [Compound 65],% of modification,[2]; [3],D (percent of modification <25%)
C=CC(=O)N1CCn2nc(-c3nc(-c4ccc5c(c4)CCN(C)C5)c4ccsc4c3-c3c(F)cc(F)cc3OC(C)C)cc2[C@H]1C [Compound 543],IC50,[1]; Compounds 10-999,< 100 nM
CC1c2cc(-c3nc(-c4ccc5c(cnn5C)c4)c4ccsc4c3-c3c(F)cc(F)cc3OCCO)nn2CCN1C(=O)C(O)CO (centres unmarked) [Compound 1236],IC50,[1]; Compounds 1000-1279,> 1000 nM
CCC(=O)N1CC(n2cc(-c3nc(-c4ccc5c(c4)CCNC5)c4ccsc4c3-c3ccc(F)cc3OC)cn2)C1 [Compound 124],IC50,[1]; Compounds 10-999,> 3000 nM
CCC(=O)N1CCn2nc(-c3nc(-c4ccc5c(c4)CCNC5=O)c4ccsc4c3-c3ccc(F)cc3OC(C)C)nc2C1 [Compound 260],IC50,[1]; Compounds 10-999,> 3000 nM
C=CC(=O)N1CCn2nc(-c3nc(-c4ccc5c(c4)CCN(C)C5)c4ccsc4c3-c3c(F)cc(F)cc3OC(C)C)cc2[C@@H]1C [Compound 540],IC50,[1]; Compounds 10-999,1000 to 3000 nM
C=CC(=O)N1CCCc2ccc(-c3nc(-c4ccc5c(c4)CCNC5)c4ccsc4c3-c3ccc(F)cc3OCCOC)cc21 [Compound 66],% of modification,[2]; [3],D (percent of modification <25%)
C=CC(=O)N[C@H]1CCc2ccc(-c3nc(-c4ccc5c(c4)CCNC5)c4ccsc4c3-c3ccc(F)cc3OCCOC)cc21 [Compound 81],% of modification,[2]; [3],D (percent of modification <25%)
COCCOc1cc(F)ccc1-c1c(-c2ccc(OC(C)C)cc2F)nc(-c2ccc3c(c2)CCNC3)c2ccsc12 [Compound 231],IC50,[1]; Compounds 10-999,> 3000 nM
C=CC(=O)N1CCCC1Cn1cc(-c2nc(-c3ccc4c(c3)CCNC4)c3ccsc3c2-c2ccc(F)cc2OCCOC)cn1 (centres unmarked) [Compound 63],% of modification,[2]; [3],A (percent of modification of PIK3CA protein ≥75%)
CCC(=O)N1CCn2nc(-c3nc(-c4ccc5c(c4)CCNC5=O)c4ccsc4c3-c3ccc(F)cc3OC(C)C)cc2C1 [Compound 269],IC50,[1]; Compounds 10-999,100 to 1000 nM
COCCOc1cc(F)cc(F)c1-c1c(-c2cc3n(n2)CCN(C(=O)C(O)CO)C3C)nc(-c2ccc3c(cnn3C)c2)c2ccsc12 (centres unmarked) [Compound 1241],IC50,[1]; Compounds 1000-1279,> 1000 nM
CC1c2cc(-c3nc(-c4ccc5c(cnn5C)c4)c4ccsc4c3-c3c(F)cc(F)cc3OCCO)nn2CCN1C(=O)C(O)CO (centres unmarked) [Compound 1235],IC50,[1]; Compounds 1000-1279,> 1000 nM
C=CC(=O)N1CCn2nc(-c3nc(-c4ccc5c(c4)CCN(C)C5)c4ccsc4c3-c3c(F)cc(F)cc3OC(C)C)cc2[C@@H]1C [Compound 541],IC50,[1]; Compounds 10-999,< 100 nM

# Source: US20250230138A1, “COMPOUNDS HAVING A T-STRUCTURE FORMED BY AT LEAST FOUR CYCLES FOR USE IN THE TREATMENT OF CANCER AND OTHER INDICATIONS” (TheRas, Inc., priority 2022, published 2025)
